Test results from a melting point compilation (Tetko et al.; mined from patent text by program, amines drawn as free bases though some values may be those of a salt).

melting point [°C] | SMILES
95 to 97 | CCCN(CCC)C(=O)Cc1ccc(OCC(=O)c2ccc(OC)cc2)c([N+](=O)[O-])c1
157 to 159 | O=c1ccn(CCOCCO)c(C(O)c2ccccc2)c1OCc1ccccc1 (stereo not given)
232 to 234 | CC(=O)N1C(C)(C)CC(NC(=O)c2ccc(Cl)c(N)c2)CC1(C)C
105 | COc1ccc(NN)c(C)c1
86 to 88 | COc1ccc(C(C)(C)C(=O)O)cc1
79 to 82 | COC(=O)c1cc(S(=O)(=O)c2ccc(C)cc2)cc2c1OC(c1ccc(OC)cc1)(c1ccc(OC)cc1)O2
185 to 189 | Cc1ccc(N2CCN(c3c(C)c(O)c4c(c3C)CC(C)(C)O4)CC2)cc1
153 | CCc1nc(NC(C)=O)nc(NC(C)c2cccs2)n1 (stereo not given)
201 to 204 | O=C(O)C1CC(=O)N(c2ccc(O)cc2)C1 (stereo not given)
145 to 146 | COc1cccc(-c2ccc3cc(OC)ccc3c2Oc2ccc(C=O)cc2)c1
48 to 49 | CCOC(=O)c1ccc(I)nc1
210 to 212 | O=C(Nc1ccc(OC(F)(F)F)cc1)N[C@H]1CC[C@@H](Oc2ccc(C(=O)O)cc2)CC1
142 to 143 | CC1=C(C)C(=O)C(C(C)c2ccc(CC(=O)O)cc2)=C(C)C1=O (stereo not given)
145 to 147 | CCNc1nc(Nc2ccccc2)ncc1C(=O)OCC
180 to 183 | Cc1cc(Cl)c(S(C)(=O)=O)cc1C(=O)O
205 to 208 | CCCCc1nc(NC(C)=O)[nH]c(=O)c1Cc1ccc(-c2ccccc2-c2nnn[nH]2)cc1
119 to 121 | Cc1cc(Oc2c(Cl)cc(C(F)(F)F)cc2[N+](=O)[O-])nn1C(=O)OC(C)(C)C
117 to 119 | COC(=O)c1ccc(CCNCC(O)c2cc3ccccc3o2)cc1 (stereo not given)
161 to 162 | COC(=O)[C@]1(OS(C)(=O)=O)C[C@H](CC(C)C)[C@@H](O)[C@H](OC(=O)c2ccccc2)C1

melting point [°C] | SMILES
221 to 222 | O=C(c1ccccc1)c1c(-c2ccccc2)sc2cc(O)ccc12
41.5 to 42.5 | CCc1cccc2ccc(C=O)c(OCOC)c12
219 to 221 | CC(C)Cn1c(CNC(=O)OC(C)(C)C)c(-c2cccs2)c2cc(OCC(N)=O)ccc2c1=O
186 to 188 | O=C(O)Cc1ccc2c(c1)Cc1ccccc1C(=O)C2
163 to 164 | C=CCOc1ccc(C(=O)O)cc1
114 to 116 | CCOC(=O)C(=O)c1cn(CC)c2cc(-c3ccc(OC(F)(F)F)cc3)ccc12
66 | CCOC(=O)[C@@H]1O[C@@H]1c1ccc(C)cc1
86 to 87 | O=C(O)[C@H](Cc1ccc(C(F)(F)F)o1)[C@@H](O)c1ccc(F)cc1 (racemic)
169 to 172 | C=CCNC(=O)Nc1ccccc1CCc1cc(C(C)(C)C)c(O)c(C(C)(C)C)c1
154 to 157 | COC(=O)c1cccc2nc(Cl)n(Cc3ccc(-c4ccccc4C#N)cc3)c12
96 to 98 | COC(=O)CN1CCC(NC(=O)OC(C)(C)C)CC1
66 to 67 | Cc1cccc(C(=O)Cc2ccnc(F)c2)c1
121 | O=C1CCCc2cc(S(=O)(=O)c3ccccc3)ccc21
159 to 160 | Nc1ccccc1NC(=O)c1ccc(CNC(=O)OCc2cccnc2)cc1
86 to 92 | COCCNC(=O)c1cccc(-c2cccc3cc(Cc4cccc(C#N)c4)sc23)c1
46.5 to 48 | CC(C)(CO)c1ccc(Br)cc1
176 to 179 | CCCCOc1cc(CN)cc(S(N)(=O)=O)c1Cc1ccccc1
196 to 197 | CC(C)(C)OC(=O)/C=C/c1ccnc(-c2nc(=O)c3ccccc3s2)c1
177 to 180 | COc1ccc2c(c1)c(Cc1nc(-c3ccc(Br)cc3)cs1)c(C)n2C(=O)c1ccc(Cl)cc1

melting point [°C] | SMILES
111 to 112 | COc1ccc2c(c1)c(Br)cn2C(=O)OC(C)(C)C
228 to 229 | O=C(O)Cc1csc(-c2cc3cccc(NS(=O)(=O)c4cccs4)c3[nH]2)n1
209 to 212 | Cn1ccc(=O)c(O)c1Cc1cccnc1
196 to 198 | CCCCc1nc2c(N)nc3ccccc3c2n1CC(C)(C)OCCS(C)(=O)=O
141 to 144 | C[C@]1(CN2CCC(NC(=O)OCc3ccc(C(F)(F)F)cc3)CC2)Cn2cc([N+](=O)[O-])nc2O1
81 | CCC[C@H]1CC[C@H]([C@H]2CC[C@H](c3ccc(C(C)=O)cc3)CC2)CC1
198 to 199 | CC(C)(C)c1cc(CC#Cc2ccc(C(=O)O)cc2)cc(C(C)(C)C)c1O
101 to 103 | CCOC(=O)c1cc(-c2cc(OC)cc(OC)c2)ns1
79 to 82 | CCOC(=O)c1cc(C)nc(NN=C(C)C)c1
186 to 192 | COc1cnn(C)c(=O)c1-c1c(C)cc(C)cc1C
138 to 140 | COc1cc(C(=O)COC(C)=O)ccc1OCCCN1CCC(C(O)(c2ccc(F)cc2)c2ccc(F)cc2)CC1
112 | CCOC(=O)c1ccc(N(C)C)nn1
140 to 142 | COc1ccc(-c2nc(-c3ccc(F)cc3)sc2-c2ccc(OC)cc2)cc1
88 to 90 | OC1C=C(c2ccc(C(F)(F)F)cc2)CN(Cc2ccccc2)C1 (stereo not given)
85.5 to 86.5 | O=C(OCc1ccccc1)N1CCN2C(=O)OCC2C1 (racemic)
198 to 200 | COc1ccc(-c2nc(-c3cccn3CC(=O)O)sc2-c2ccc(OC)cc2)cc1
85 to 86 | Cc1cc(-c2nc(COc3ccc(CCCCn4ccnc4)cc3)co2)sc1Br
155 to 157 | N#CC(C(=O)Nc1ccc(S(=O)C(F)(F)F)cc1)=C(O)C1CC1 (stereo not given)
46.5 to 49 | OCc1ccc(Cl)cc1Cc1ccccc1

Second part, the molecule before the results:

SMILES | melting point [°C]
CCC(C)(C)NC(=O)NC(C)C#N (stereo not given) | 129 to 130
O=c1c(Cl)c(OCc2ccc(Cl)cc2)cnn1-c1ccc(F)cc1F | 167
Clc1nnc(Cc2ccc(OCc3ccccc3)cc2)c2ccccc12 | 150 to 152
CCC12CCC(=O)C=C1c1c(cc(OCC(=O)O)c(Cl)c1Cl)C2C (stereo not given) | 212 to 214
CCOCc1nc2c(N)nc(C)c(C)c2n1CCN | 163 to 166
N=C(N)NCCCCN[N+](=O)[O-] | 123 to 124
CCCn1c(=O)c2c(ncn2CCCCC(C)=O)n(C)c1=O | 76 to 78
CCOC1Nc2c(OC(C)=O)cccc2C(=O)N2CCCC12 (stereo not given) | 146 to 149
COc1cc(Nc2c(C#N)cnc3cc(SCc4ccccc4)c(OC)cc23)c(Cl)cc1Cl | 123 to 125
c1ccc2cc(-c3ccc(-c4nc(-c5ccc(-c6ccc7ccccc7c6)cc5)n(-c5cccc6ccccc56)n4)cc3)ccc2c1 | > 250
CCN(c1cccc(C(=O)Nc2cc(NC(=O)c3cccc(N4CCOCC4)c3)ccc2C)c1)S(C)(=O)=O | 192 to 193
O=C(O)C(O)(c1ccccc1)c1ccc(Br)cc1 (racemic) | 125 to 126
CCOC(=O)NC(=S)C1=C(N2CCOCC2)CCC1 | 114 to 118
N#CC1CN(c2c(F)cc3c(=O)c(C(=O)O)cn(C4CC4)c3c2F)C1 | > 325
O=c1n(-c2ccccc2)nc2c3c(nc(Cl)n12)CCCC3 | 205 to 207
Cc1cc(Nc2cc(-c3c(C)cccc3C)nc(Sc3ccc4ccccc4c3)n2)[nH]n1 | 148 to 152
CC1(C)C(=O)C(C)(C)c2cc(C(F)CN3CCN(c4nsc5ccccc45)CC3)ccc21 (stereo not given) | 64 to 73
COP(=S)(OC)Oc1cc(-c2ccccc2)sc1C#N | 95
COc1ccc(C2=NN(C3CCCCCCC3)C(=O)[C@H]3CC=CC[C@@H]23)cc1OC (relative stereo) | 75 to 77
CC(=O)c1c(CCN2CCN(C)CC2)nc(-c2ccccc2)nc1-c1cccc([N+](=O)[O-])c1 | 88 to 91
CCCCCCCCCCCCCCCCCCOc1ccc(OCCCOc2ccc(OCc3ccccc3)cc2)c(C(=O)OC)c1 | 79 to 81
CCc1c2nc(-c3cc(S(C)(=O)=O)ccc3OCC(C)C)[nH]c(=O)c2nn1Cc1cccnn1 | 244 to 247

SMILES | melting point [°C]
CCCCc1ncc(/C=C(/C(=O)O)C(Cc2ccccc2)c2cccs2)n1Cc1ccccc1Cl (stereo not given) | 200 to 202
c1ccc(OCCCCCCN2CCN(c3nccs3)CC2)cc1 | 37 to 39
CCOC(=O)[C@]1(O)C=C[C@@H](NC(C)=O)[C@@H]2OC(C)(C)O[C@@H]21 | 97 to 99
Cc1cc(C)n(C(=O)CCl)n1 | 62
CN1C(=O)CC[C@]2(C)c3ccc(-c4ccc(Cl)c(C(F)(F)F)c4)cc3CC[C@@H]12 | 134 to 137
O=C(c1oc2ccc(N3CCN(Cc4ccccc4)CC3)cc2c1Br)N(Cc1ccccc1)Cc1ccccc1 | 196 to 198
Cc1c(-c2ccncc2)oc2c1C(=O)CCC2 | 136 to 138
CCOC(=O)c1cn(CC)c2nc(C=O)c(O)cc2c1=O | 243 to 245
CCCSCc1cc2oc(S(N)(=O)=O)cc2cn1 | 171 to 172
CN1C(=O)COc2c1cc(Cl)c([N+](=O)[O-])c2C(=O)O | 257
CCCC1=C(C(=O)OCC)SCCS1=O (stereo not given) | 109 to 110
CC(C)(C)NS(=O)(=O)c1cc2c(s1)S(=O)(=O)NCC2O (stereo not given) | 144 to 147
NC[C@H]1COc2ccc(F)c(-c3ccc(Cl)cc3Cl)c2O1 | 65
c1cc(COc2cccc(-c3nnn[nH]3)c2)cc(OCc2ccc3ccccc3n2)c1 | 169 to 172
Cc1c(C2(c3ccccc3)CCC(c3ccccc3)(N(C)C)CC2)[nH]c2ccccc12 (stereo not given) | 193 to 207
CN(C)C1CCN(c2nc(N3CCOCC3)c3ncnc(OCc4ccccc4)c3n2)CC1 | 186 to 188
CCOc1ccc(C(O)CN2CCOCC2)cc1-c1nc2c(C)cccc2c(=O)[nH]1 (stereo not given) | 145 to 147
N#Cc1ccc([C@H]2CC[C@H](CI)CC2)cc1 | 127
C=C(C)Cc1cc(C)c2c(c1O)C(=O)CC2 | 62.5 to 64
CCOc1ccc(C2=NN(C3CCN(C(=O)CCCC(=O)O)CC3)C(=O)[C@@H]3CC=CC[C@H]23)cc1OCC | 133 to 135
CCc1nn(C)c2[nH]c(=O)c3ccccc3c12 | 291 to 294
